The results in this text go back to patent publication US9845310B2 (priority 2015, dated 2017).

This assay deals with naive Sprague Dawley rat hearts. The conditions noted are these: ex vivo isolated perfused rat heart, percent change over vehicle; for Isolated Heart Assay dP/dtmax(%): contractility; for Isolated Heart Assay dP/dtmin(%): relaxation (lusitropic).

On to `COc1cccc(-c2nnc(NS(=O)(=O)[C@@H](C)[C@H](OC)c3ncc(C)cn3)n2-c2cccnc2OC)n1` (atropisomer, axis not shown) [Example 741.0, (1R,2S, P)-1-methoxy-N-(4-(2-methoxy-3-pyridinyl)-5-(6-methoxy-2-pyridinyl)-4H-1,2,4-triazol-3-yl)-1-(5-methyl-2-pyrimidinyl)-2-propanesulfonamide and (1R,2S, M)-1-methoxy-N-(4-(2-methoxy-3-pyridinyl)-5-(6-methoxy-2-pyridinyl)-4H-1,2,4-triazol-3-yl)-1-(5-methyl-2-pyrimidinyl)-2-propanesulfonamide], for which the “Isolated Heart Assay dP/dtmax(%)” value was 1.4% and the “Isolated Heart Assay dP/dtmin(%)” value is 6.6%.

On to `COc1cccc(OC)c1-n1c(NS(=O)(=O)[C@@H](C)[C@H](C)c2ncc(F)cn2)nnc1-c1cccnc1` (racemic) [Example 184.0, (2R,3S)-N-(4-(2,6-dimethoxyphenyl)-5-(3-pyridinyl)-4H-1,2,4-triazol-3-yl)-3-(5-fluoro-2-pyrimidinyl)-2-butanesulfonamide or (2S,3R)-N-(4-(2,6-dimethoxyphenyl)-5-(3-pyridinyl)-4H-1,2,4-triazol-3-yl)-3-(5-fluoro-2-pyrimidinyl)-2-butanesulfonamide], for which the “Isolated Heart Assay dP/dtmax(%)” value is 14.5% and the “Isolated Heart Assay dP/dtmin(%)” value was 14.0%.

Consider `COc1cccc(OC)c1-n1c(NS(=O)(=O)[C@H](C)[C@@H](OC)c2ccc(Cl)cn2)nnc1-c1cccnc1` (single isomer, unassigned) [Example 531.0, (1S,2R)-1-(5-chloro-2-pyridinyl)-N-(4-(2,6-dimethoxyphenyl)-5-(3-pyridinyl)-4H-1,2,4-triazol-3-yl)-1-methoxy-2-propanesulfonamide or (1R,2S)-1-(5-chloro-2-pyridinyl)-N-(4-(2,6-dimethoxyphenyl)-5-(3-pyridinyl)-4H-1,2,4-triazol-3-yl)-1-methoxy-2-propanesulfonamide], for which the “Isolated Heart Assay dP/dtmax(%)” value was 4.1% and the “Isolated Heart Assay dP/dtmin(%)” value was found to be 1.9%.

With `COc1cccc(OC)c1-n1c(NS(=O)(=O)[C@H](C)[C@@H](O)c2cnc(C)cn2)nnc1-c1cncc(C)c1` (single isomer, unassigned) [Example 569.0, (1S,2R)-N-(4-(2,6-dimethoxyphenyl)-5-(5-methyl-3-pyridinyl)-4H-1,2,4-triazol-3-yl)-1-hydroxy-1-(5-methyl-2-pyrazinyl)-2-propanesulfonamide or (1R,2S)-N-(4-(2,6-dimethoxyphenyl)-5-(5-methyl-3-pyridinyl)-4H-1,2,4-triazol-3-yl)-1-hydroxy-1-(5-methyl-2-pyrazinyl)-2-propanesulfonamide], the “Isolated Heart Assay dP/dtmax(%)” value is reported as 12.4% and the “Isolated Heart Assay dP/dtmin(%)” value is 12.7%.

For the compound `COc1cccc(OC)c1-n1c(NS(=O)(=O)[C@H](C)[C@@H](OC)c2cnc(C)cn2)nnc1-c1cncc(C)c1` (single isomer, unassigned) [Example 571.0, (1S,2R)-N-(4-(2,6-dimethoxyphenyl)-5-(5-methyl-3-pyridinyl)-4H-1,2,4-triazol-3-yl)-1-methoxy-1-(5-methyl-2-pyrazinyl)-2-propanesulfonamide or (1R,2S)-N-(4-(2,6-dimethoxyphenyl)-5-(5-methyl-3-pyridinyl)-4H-1,2,4-triazol-3-yl)-1-methoxy-1-(5-methyl-2-pyrazinyl)-2-propanesulfonamide], the “Isolated Heart Assay dP/dtmax(%)” value is recorded as 13.3% and the “Isolated Heart Assay dP/dtmin(%)” value came to 18.8%.

As to `COc1cnc([C@H](O)[C@@H](C)S(=O)(=O)Nc2nnc(-c3cccnc3)n2-c2c(OC)cccc2OC)cn1` (single isomer, unassigned) [Example 706.0, (1S,2R)-N-(4-(2,6-dimethoxyphenyl)-5-(3-pyridinyl)-4H-1,2,4-triazol-3-yl)-1-hydroxy-1-(5-methoxy-2-pyrazinyl)-2-propanesulfonamide or (1R,2S)-N-(4-(2,6-dimethoxyphenyl)-5-(3-pyridinyl)-4H-1,2,4-triazol-3-yl)-1-hydroxy-1-(5-methoxy-2-pyrazinyl)-2-propanesulfonamide], the “Isolated Heart Assay dP/dtmax(%)” value was 9.1% and the “Isolated Heart Assay dP/dtmin(%)” value was 4.0%.

`COc1ncnc(OC)c1-n1c(NS(=O)(=O)[C@@H](C)[C@H](OC)c2ccc(Cl)cn2)nnc1-c1cccnc1` (single isomer, unassigned) [Example 711.0, (1R,2S)-1-(5-chloro-2-pyridinyl)-N-(4-(4,6-dimethoxy-5-pyrimidinyl)-5-(3-pyridinyl)-4H-1,2,4-triazol-3-yl)-1-methoxy-2-propanesulfonamide or (1S,2R)-1-(5-chloro-2-pyridinyl)-N-(4-(4,6-dimethoxy-5-pyrimidinyl)-5-(3-pyridinyl)-4H-1,2,4-triazol-3-yl)-1-methoxy-2-propanesulfonamide]: the “Isolated Heart Assay dP/dtmax(%)” value is 9.4% and the “Isolated Heart Assay dP/dtmin(%)” value is given as 1.1%.

Turning to `Cc1cnc([C@@H](C)[C@H](C)S(=O)(=O)Nc2nnc(-c3cncc(C)c3)n2-c2c(F)cccc2F)nc1` (single isomer, unassigned) [Example 826.0, (2S,3R)-N-(4-(2,6-difluorophenyl)-5-(5-methylpyridin-3-yl)-4H-1,2,4-triazol-3-yl)-3-(5-methylpyrimidin-2-yl)butane-2-sulfonamide or (2R,3S)-N-(4-(2,6-difluorophenyl)-5-(5-methylpyridin-3-yl)-4H-1,2,4-triazol-3-yl)-3-(5-methylpyrimidin-2-yl)butane-2-sulfonamide], the “Isolated Heart Assay dP/dtmax(%)” value amounted to 6.02% and the “Isolated Heart Assay dP/dtmin(%)” value came to 5.16%.

As to `COc1cccc(OC)c1-n1c(NS(=O)(=O)[C@@H](C)[C@@H](OC(C)C)c2ncc(C)cn2)nnc1-c1cccnc1` (stereo in doubt) [Example 627.0, (1R,2R)-N-(4-(2,6-dimethoxyphenyl)-5-(3-pyridinyl)-4H-1,2,4-triazol-3-yl)-1-(1-methylethoxy)-1-(5-methyl-2-pyrimidinyl)-2-propanesulfonamide, (1S,2S)-N-(4-(2,6-dimethoxyphenyl)-5-(3-pyridinyl)-4H-1,2,4-triazol-3-yl)-1-(1-methylethoxy)-1-(5-methyl-2-pyrimidinyl)-2-propanesulfonamide], the “Isolated Heart Assay dP/dtmax(%)” value was “No effect” and the “Isolated Heart Assay dP/dtmin(%)” value is “No effect”.

In the case of `CCO[C@H](c1ncc(F)cn1)[C@H](C)S(=O)(=O)Nc1nnc(-c2cccnc2)n1-c1c(OC)cccc1OC` [Example 51.0, (1R,2S)-N-(4-(2,6-dimethoxyphenyl)-5-(3-pyidinyl)-4H-1,2,4-triazol-3-yl)-1-ethoxy-1-(5-fluoro-2-pyrimidinyl)-2-propanesulfonamide], the “Isolated Heart Assay dP/dtmax(%)” value was found to be 2.0% and the “Isolated Heart Assay dP/dtmin(%)” value is given as 2.0%.

For the compound `CCO[C@H](c1ncc(F)cn1)[C@H](C)S(=O)(=O)Nc1nnc(-c2cncc(C)c2)n1-c1c(OC)cccc1OC` [Example 79.0, (1R,2S)-N-(4-(2,6-dimethoxyphenyl)-5-(5-methyl-3-pyridinyl)-4H-1,2,4-triazol-3-yl)-1-ethoxy-1-(5-fluoro-2-pyrimidinyl)-2-propanesulfonamide], the “Isolated Heart Assay dP/dtmax(%)” value is on record as 10.0% and the “Isolated Heart Assay dP/dtmin(%)” value was found to be 5.0%.

Turning to `COc1cccc(OC)c1-n1c(NS(=O)(=O)[C@@H](C)[C@H](OC)c2ncc(F)cn2)nnc1-c1cncc(C)c1` [Example 80.0, (1R,2S)-N-(4-(2,6-dimethoxyphenyl)-5-(5-methyl-3-pyridinyl)-4H-1,2,4-triazol-3-yl)-1-(5-fluoro-2-pyrimidinyl)-1-methoxy-2-propanesulfonamide], the “Isolated Heart Assay dP/dtmax(%)” value turned out to be 5.0% and the “Isolated Heart Assay dP/dtmin(%)” value is −2.7%.

`COc1cccc(OC)c1-n1c(NS(=O)(=O)[C@@H](C)[C@H](OC)c2ncc(F)cn2)nnc1-c1cccnc1` [Example 81.0, (1R,2S)-N-(4-(2,6-dimethoxyphenyl)-5-(3-pyridinyl)-4H-1,2,4-triazol-3-yl)-1-(5-fluoro-2-pyrimidinyl)-1-methoxy-2-propanesulfonamide]: the “Isolated Heart Assay dP/dtmax(%)” value came out at 14.0% and the “Isolated Heart Assay dP/dtmin(%)” value worked out at 15.0%.

With `COc1cccc(OC)c1-n1c(NS(=O)(=O)[C@@H](C)[C@H](O)c2ncc(F)cn2)nnc1-c1cccnc1` [Example 82.0, (1R,2S)-N-(4-(2,6-dimethoxyphenyl)-5-(3-pyridinyl)-4H-1,2,4-triazol-3-yl)-1-(5-fluoro-2-pyrimidinyl)-1-hydroxy-2-propanesulfonamide], the “Isolated Heart Assay dP/dtmax(%)” value worked out at 13.5% and the “Isolated Heart Assay dP/dtmin(%)” value is 16.2%.

`CCO[C@H](c1ncc(C)cn1)[C@H](C)S(=O)(=O)Nc1nnc(-c2cncc(C)c2)n1-c1c(OC)cccc1OC` [Example 252.0, (1R,2S)-N-(4-(2,6-dimethoxyphenyl)-5-(5-methylpyridin-3-yl)-4H-1,2,4-triazol-3-yl)-1-ethoxy-1-(5-methylpyrimidin-2-yl)propane-2-sulfonamide]: the “Isolated Heart Assay dP/dtmax(%)” value is on record as 15.7% and the “Isolated Heart Assay dP/dtmin(%)” value is recorded as 16.3%.

Take `CCO[C@H](c1ncc(Cl)cn1)[C@H](C)S(=O)(=O)Nc1nnc(-c2cccnc2)n1-c1c(OC)cccc1OC` [Example 430.0, (1R,2S)-1-(5-chloropyrimidin-2-yl)-N-(4-(2,6-dimethoxyphenyl)-5-(pyridin-3-yl)-4H-1,2,4-triazol-3-yl)-1-ethoxypropane-2-sulfonamide]: the “Isolated Heart Assay dP/dtmax(%)” value worked out at 10.0% and the “Isolated Heart Assay dP/dtmin(%)” value is recorded as 9.7%.

Take `COc1cccc(OC)c1-n1c(NS(=O)(=O)[C@@H](C)[C@H](OC)c2ncc(Cl)cn2)nnc1-c1cccnc1` [Example 591.0, (1R,2S)-1-(5-chloro-2-pyrimidinyl)-N-(4-(2,6-dimethoxyphenyl)-5-(3-pyridinyl)-4H-1,2,4-triazol-3-yl)-1-methoxy-2-propanesulfonamide]: the “Isolated Heart Assay dP/dtmax(%)” value was 8.0% and the “Isolated Heart Assay dP/dtmin(%)” value was determined as 0.0%.

With `CCO[C@H](c1ncc(Cl)cn1)[C@H](C)S(=O)(=O)Nc1nnc(-c2cncc(C)c2)n1-c1c(OC)cccc1OC` [Example 610.0, (1R,2S)-1-(5-chloro-2-pyrimidinyl)-N-(4-(2,6-dimethoxyphenyl)-5-(5-methyl-3-pyridinyl)-4H-1,2,4-triazol-3-yl)-1-ethoxy-2-propanesulfonamide], the “Isolated Heart Assay dP/dtmax(%)” value was 6.0% and the “Isolated Heart Assay dP/dtmin(%)” value is given as “No effect”.
